Tests used:
[1] = target: T1, full length mouse TREX1 (Mus musculus, UniProt Q91XB0); experiment: mTREX1 Biochemical Assay (fluorescence, dsDNA substrate degradation); settings: biochemical, read-out: mTREX1 IC50
T1 construct: N-terminally His-Tev tagged full length mouse TREX1; made in house; host or cells: E. coli
T1 sequence (Q91XB0 1-314): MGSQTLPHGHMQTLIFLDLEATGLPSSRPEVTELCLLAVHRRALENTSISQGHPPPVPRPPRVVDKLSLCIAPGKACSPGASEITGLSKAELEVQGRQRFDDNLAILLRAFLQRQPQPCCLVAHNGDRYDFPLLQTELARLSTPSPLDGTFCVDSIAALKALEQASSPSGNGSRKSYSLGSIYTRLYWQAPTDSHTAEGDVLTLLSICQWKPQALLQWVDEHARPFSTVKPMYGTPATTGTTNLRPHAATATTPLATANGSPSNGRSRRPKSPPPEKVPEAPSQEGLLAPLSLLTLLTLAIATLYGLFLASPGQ
Protocol: (§1) Degradation of the dsDNA liberates free fluorophore to produce a fluorescent signal. Specifically, 7.5 μL of N-terminally His-Tev tagged full length mouse TREX1 (expressed in E. coli and purified in house) in reaction buffer (50 mM Tris, 150 mM NaCl, 2 mM DTT, 0.1 mg/mL BSA, 0.01% (w/v) Tween-20, 5 mM MgCl2, pH 7.4) was added to a 384-well Black ProxiPlate Plus (PerkinElmer) which already contained compound (150 nL) at varying concentrations as a 10 point dose-response in DMSO. The plate was incubated at 25° C. for 4 hours. Reactions were initiated by adding 7.5 μL of dsDNA substrate (Strand A: 5′ TEX615/GCT AGG CAG 3′; Strand B: 5′ CTG CCT AGC/IAbRQSp (Integrated DNA Technologies)) in reaction buffer. Final concentrations were 6 pM TREX1, 60 nM dsDNA substrate in reaction buffer with 1.0% DMSO (v/v). After 18 hours at 25° C., reactions were quenched by the addition of 2 μL of 500 mM EDTA.

[2] = target: T2, full length human TREX1 (Homo sapiens, UniProt Q9NSU2); experiment: hTREX1 Biochemical Assay (fluorescence, dsDNA substrate degradation); settings: biochemical, read-out: hTREX1 IC50
T2 construct: N-terminally His-Tev tagged full length human TREX1; made in house; host or cells: E. coli
T2 sequence (Q9NSU2 1-314): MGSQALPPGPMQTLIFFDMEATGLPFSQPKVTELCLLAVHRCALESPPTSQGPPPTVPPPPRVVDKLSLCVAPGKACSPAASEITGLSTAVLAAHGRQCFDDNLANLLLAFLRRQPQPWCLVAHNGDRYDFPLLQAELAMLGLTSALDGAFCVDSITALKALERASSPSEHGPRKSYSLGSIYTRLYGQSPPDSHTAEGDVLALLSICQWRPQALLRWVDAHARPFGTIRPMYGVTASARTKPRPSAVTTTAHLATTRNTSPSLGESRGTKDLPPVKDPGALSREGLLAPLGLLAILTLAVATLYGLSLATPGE
Protocol: as §1, with “length human” for “length mouse”, “were 4” for “were 6”

Row | SMILES | IC50 [1] [nM] | IC50 [2] [nM]
1 | Cc1cc(C(c2ccccc2C#N)C(C)c2nc(C(=O)Nc3cnoc3)c(O)c(=O)n2C)n(C)n1 (single isomer, unassigned) [Example 63 D2E1] | > 10 | > 10
2 | CCn1cc(C(c2ccc(F)cc2C#N)C(C)c2nc(C(=O)Nc3cnoc3)c(O)c(=O)n2C)cn1 (single isomer, unassigned) [Example 16 D1E2] | > 10 | > 10
3 | CC(c1nc(C(=O)Nc2cnoc2)c(O)c(=O)n1C)C(c1cnn(C(F)F)c1)c1ccccc1C#N (single isomer, unassigned) [Example 38 D1E2] | > 10 | > 10
4 | COCCCn1cc(C(c2ccccc2C#N)C(C)c2nc(C(=O)Nc3cnoc3)c(O)c(=O)n2C)cn1 (single isomer, unassigned) [Example 24 D2E1] | > 10 | > 10
5 | CC(c1nc(C(=O)Nc2cnoc2)c(O)c(=O)n1C)C(c1cnn(CC2CC2)c1)c1ccccc1C#N (single isomer, unassigned) [Example 23 D1E1] | > 10 | > 10
6 | CCn1cc(C(c2ccccc2C#N)C(C)c2nc(C(=O)Nc3cnoc3)c(O)c(=O)n2C)cn1 (single isomer, unassigned) [Example 13 D2E2] | > 10 | > 10
7 | CC(c1nc(C(=O)Nc2cnoc2)c(O)c(=O)n1C)C(c1cn(C)cn1)c1ccccc1C#N (single isomer, unassigned) [Example 39 D2E1] | > 10 | > 10
8 | CC(c1nc(C(=O)Nc2cnoc2)c(O)c(=O)n1C)C(c1cn[nH]c1)c1ccccc1C#N (single isomer, unassigned) [Example 12 D2E2] | > 10 | > 10
9 | CCn1cc(C(c2ccc(F)cc2C#N)C(C)c2nc(C(=O)Nc3cnoc3)c(O)c(=O)n2C)c(C)n1 (single isomer, unassigned) [Example 55 D1E2] | > 10 | > 10
10 | Cc1nn(C)cc1C(c1ccc(F)cc1C#N)C(C)c1nc(C(=O)Nc2cnoc2)c(O)c(=O)n1C (single isomer, unassigned) [Example 56 D2E2] | > 10 | > 10
11 | CC(c1nc(C(=O)Nc2cnoc2)c(O)c(=O)n1C)C(c1cnn(C)c1)c1cc(F)c(F)cc1Cl (single isomer, unassigned) [Example 28 D2E1] | > 10 | > 10
12 | CC(c1nc(C(=O)Nc2cnoc2)c(O)c(=O)n1C)C(c1cnn(C)c1)c1cccnc1C#N (single isomer, unassigned) [Example 7 D2E1] | > 10 | > 10
13 | CC(c1nc(C(=O)Nc2cnoc2)c(O)c(=O)n1C)C(c1cnn(C)c1)c1cc(F)c(F)cc1Cl (single isomer, unassigned) [Example 28 D1E2] | > 10 | > 10
14 | Cc1c(C(c2ccccc2C#N)C(C)c2nc(C(=O)Nc3cnoc3)c(O)c(=O)n2C)cnn1C (single isomer, unassigned) [Example 4 D1E2] | > 10 | > 10
15 | CC(c1nc(C(=O)Nc2cnoc2)c(O)c(=O)n1C)C(c1cnn(C)c1)c1cc(F)c(F)cc1C#N (single isomer, unassigned) [Example 25 D2E2] | > 10 | > 10
16 | CC(c1nc(C(=O)Nc2cnoc2)c(O)c(=O)n1C)C(c1cocn1)c1ccccc1C#N (single isomer, unassigned) [Example 50 D2E2] | > 10 | > 10
17 | Cc1cnn(C(c2ccccc2C#N)C(C)c2nc(C(=O)Nc3cnoc3)c(O)c(=O)n2C)c1 (single isomer, unassigned) [Example 47 D1E1] | – | < 1
18 | COC(C)(C)Cn1cc(C(c2ccccc2C#N)C(C)c2nc(C(=O)Nc3cnoc3)c(O)c(=O)n2C)cn1 (single isomer, unassigned) [Example 37 D2E2] | – | > 10
19 | CCn1cc(C(c2ccc(F)cc2C#N)C(C)c2nc(C(=O)Nc3cnoc3)c(O)c(=O)n2C)c(C)n1 (single isomer, unassigned) [Example 55 D2E1] | – | > 10
20 | Cc1cnn(C(c2ccccc2C#N)C(C)c2nc(C(=O)Nc3cnoc3)c(O)c(=O)n2C)c1 (single isomer, unassigned) [Example 47 D1E2] | – | > 10

Second part, the compound after the results:

Row | IC50 [1] [nM] | IC50 [2] [nM] | SMILES
21 | > 10 | > 10 | Cc1ncc(C(c2ccccc2Cl)C(C)c2nc(C(=O)Nc3cnoc3)c(O)c(=O)n2C)nc1C (single isomer, unassigned) [Example 125 D2E2]
22 | > 10 | > 10 | Cc1nn(C)c(C)c1C(c1ccccc1C#N)C(C)c1nc(C(=O)Nc2cnoc2)c(O)c(=O)n1C (single isomer, unassigned) [Example 78 D2E2]
23 | > 10 | > 10 | CCn1ncc(C(c2ccc(F)cc2C#N)C(C)c2nc(C(=O)Nc3cnoc3)c(O)c(=O)n2C)c1C (single isomer, unassigned) [Example 65 D1E2]
24 | > 10 | > 10 | CC(c1nc(C(=O)Nc2cnoc2)c(O)c(=O)n1C)C(c1ccccc1C#N)c1nnnn1C (single isomer, unassigned) [Example 131 D1E2]
25 | > 10 | > 10 | Cc1cc(C(c2ccccc2C#N)C(C)c2nc(C(=O)Nc3cnoc3)c(O)c(=O)n2C)n(C)n1 (single isomer, unassigned) [Example 63 D2E2]
26 | > 10 | > 10 | Cc1cnc(C)c(C(c2cc(F)ccc2Cl)C(C)c2nc(C(=O)Nc3cnoc3)c(O)c(=O)n2C)n1 (single isomer, unassigned) [Example 121 D2E2]
27 | > 10 | > 10 | CCn1cc(C(c2cc(F)c(F)cc2Cl)C(C)c2nc(C(=O)Nc3cnoc3)c(O)c(=O)n2C)cn1 (single isomer, unassigned) [Example 72 D2E2]
28 | > 10 | > 10 | CC(c1nc(C(=O)Nc2cnoc2)c(O)c(=O)n1C)C(c1cnccn1)c1ccccc1C#N (single isomer, unassigned) [Example 66 D2E2]
29 | – | < 1 | [2H]C([2H])([2H])n1cc(C(c2ccccc2C#N)C(C)c2nc(C(=O)Nc3cnoc3)c(O)c(=O)n2C)cn1 (single isomer, unassigned) [Example 76 D1E1]
30 | – | > 10 | Cc1ncc(C(c2ccccc2C#N)C(C)c2nc(C(=O)Nc3cnoc3)c(O)c(=O)n2C)cn1 (single isomer, unassigned) [Example 67 D2E2]
31 | – | > 10 | CC(c1nc(C(=O)Nc2cnoc2)c(O)c(=O)n1C)C(c1cnn(C)c1)c1ccc(F)cc1Cl (single isomer, unassigned) [Example 74 D2E2]
32 | – | < 1 | CC(c1nc(C(=O)Nc2cnoc2)c(O)c(=O)n1C)C(c1cnn(C)c1)c1ccc(F)cc1Cl (single isomer, unassigned) [Example 74 D1E1]
33 | – | > 10 | CC(c1nc(C(=O)Nc2cnoc2)c(O)c(=O)n1C)C(c1cnn(C)c1)c1ccc(F)cc1Cl (single isomer, unassigned) [Example 74 D2E1]
34 | – | > 10 | Cc1ncc(C(c2ccccc2C#N)C(C)c2nc(C(=O)Nc3cnoc3)c(O)c(=O)n2C)cn1 (single isomer, unassigned) [Example 67 D2E1]
35 | – | > 10 | CC(c1nc(C(=O)Nc2cnoc2)c(O)c(=O)n1C)C(c1cnn(C)c1)c1ccc(F)cc1Cl (single isomer, unassigned) [Example 74 D1E2]
36 | – | > 10 | Cc1ncc(C(c2ccccc2C#N)C(C)c2nc(C(=O)Nc3cnoc3)c(O)c(=O)n2C)cn1 (single isomer, unassigned) [Example 67 D1E1]
